Reference: PMC9854868, “Structure–Activity Relationship Studies of Substitutions of Cationic Amino Acid Residues on Antimicrobial Peptides” (Antibiotics, 2022)
Values after ≈ are worked out from the molar mass of the structure shown. Where two headings read alike, the source gives them in different places. Square brackets hold non-standard residues; d marks the D form. Ends that are not written are not given here. Peptide text beside a SMILES is read from it. Orn = NCCC[C@H](N)C(=O)O; Dab = NCC[C@H](N)C(=O)O; Aib = CC(C)(N)C(=O)O

Experiments:
[1] = test system: E. coli DH5α; format: cell-based, Escherichia coli
Experimental: (§1) The selected bacterial strains were obtained from the Biological Resource Center, NITE (NBRC; Tokyo, Japan). Escherichia coli DH5α cells were purchased from BioDynamics Laboratory, Inc. (Tokyo, Japan). The antimicrobial activities of the peptides against […] and three Gram-negative bacteria, S. aureus NBRC 13276, E. coli DH5α, P. aeruginosa NBRC 13275, and MDRP were measured using the standard broth microdilution method, as previously described. Briefly, the bacteria were inoculated and grown overnight at 37 °C on the media for other organisms i (agar medium) and then collected with the media for other organisms ii (liquid medium), according to the Japanese Pharmacopoeia 17th Edition. Each peptide was 2-fold serially diluted with an initial concentration of 4000 μM–1.56 μM in PBS for use. Next, 10 μL of the peptide solution per well was added to each well of a sterile 96-well plate. Subsequently, 90 μL per well of inoculation with 10^4 CFUs (colony forming units) per mL was added to each well, and the plate was incubated for 18 h at 35 °C.

[2] = test system: P. aeruginosa NBRC 13275; format: cell-based, Pseudomonas aeruginosa; details: NBRC 13275, 18 h
Experimental: as §1

[3] = test system: MDRP; format: cell-based, multidrug-resistant Pseudomonas aeruginosa; details: 18 h
Experimental: as §1

[4] = test system: S. aureus NBRC 13276; format: cell-based, Staphylococcus aureus; details: NBRC 13276, 18 h
Experimental: as §1

[5] = test system: human red blood cells; details: human RBCs in 172 mM Tris-HCl pH 7.6, 30 min at 37 °C, 100 to 0.39 μM, absorbance 535 nm; DMSO = 0%, M-Lycotoxin = 100%
Experimental: Human red blood cells (RBCs) were kindly supplied by the Japanese Red Cross Society (Tokyo, Japan) and were collected from volunteers under informed consent. The hemolysis test of peptides was performed using a previously reported method. In short, the RBCs were washed three times with 172 mM Tris-HCl buffer (pH = 7.6, wash buffer: WB), and 1.0 mL of sedimented erythrocytes was then transferred to 9.0 mL of WB. Then, 0.5 mL of this suspension was diluted in WB, and 50 µL of RBC suspension was incubated with 50 µL of each peptide for 30 min at 37 °C (final peptide conc from 100 to 0.39 μM). The suspensions were then centrifuged for 5 min at 400 rpm. The absorbance of the supernatant was measured at a wavelength of 535 nm. M-Lycotoxin [26] was used as a positive control, and the absorbances of the sample by treatment of DMSO and M-Lycotoxin were defined as 0 and 100%.

[6] = Digestion assay with proteinase K; format: in vitro ADME; details: proteinase K (isolated protease); proteinase K 0.002% (v/v), peptide 1 mM, 37 °C, 24 h, read-out HPLC, two independent experiments; read-out: remaining peptide after treatment with proteinase K
Experimental: (§2) The digestion assay was performed using Proteinase K of the digestive enzyme. Peptides (1 mM) were treated with 0.002% (v/v) Proteinase K and peptides were incubated at 37 °C for 2–24 h. A solution (0.1% TFA/H2O/MeCN) was added to quench the enzymatic reaction. The peptides were evaluated using analytical HPLC and a Discovery® BIO Wide Pore C18 column (25 cm × 4.6 mm, solvent A: 0.1% TFA/water, solvent B: 0.1% TFA/MeCN, flow rate: […], gradient: 10–60% gradient of solvent B over 30 min). Reproducibility was confirmed by the two independent experiments.

[7] = biological target: proteinase K (Parengyodontium album, UniProt P06873); experiment: Digestion assay with proteinase K; format: in vitro ADME; details: proteinase K 0.002% (v/v), peptide 1 mM, 37 °C, 2–24 h, HPLC; replacing Lys with Orn
Sequence of proteinase K (P06873 106-384): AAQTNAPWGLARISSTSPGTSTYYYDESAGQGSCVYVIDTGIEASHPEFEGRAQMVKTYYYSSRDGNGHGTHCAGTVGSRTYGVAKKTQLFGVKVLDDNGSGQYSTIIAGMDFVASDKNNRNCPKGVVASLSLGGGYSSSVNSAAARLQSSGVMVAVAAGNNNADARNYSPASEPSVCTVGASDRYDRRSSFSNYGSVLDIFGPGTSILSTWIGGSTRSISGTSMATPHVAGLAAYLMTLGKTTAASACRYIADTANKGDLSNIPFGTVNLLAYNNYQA
Experimental: as §2

Row | Molecule | MIC, Gram (–), E.Coli ([1]; DH5α, 18 h) [µM] | MIC, Gram (–), P.a. [2] [µM] | MIC, Gram (–), MDRP [3] [µM] | MIC, Gram (+), S.a. [4] [µM] | Hemolysis (concentration that showed hemolytic activity greater than 50%) [5] [µM] | remaining at 24 h, 1 mM [6] [%] | prolongation of half life time (t1/2) against proteinase K versus peptide 1 [7] | MIC, Gram (–), E.Coli ([1]; E. coli DH5α, broth microdilution, 10^4 CFU per mL, 18 h at 35 °C, final concentration 0.39 to 100 μM, lowest concentration that completely inhibited growth) [µM]
1 | CC[C@H](C)[C@H](NC(=O)CN)C(=O)N[C@@H](Cc1c[nH]cn1)C(=O)N[C@@H](Cc1c[nH]cn1)C(=O)N[C@@H](Cc1ccccc1)C(=O)N[C@@H](CC(C)C)C(=O)N[C@@H](Cc1c[nH]cn1)C(=O)N[C@@H](CO)C(=O)NC(C)(C)C(=O)N[C@@H](Cc1c[nH]cn1)C(=O)N[C@@H](Cc1c[nH]cn1)C(=O)N[C@@H](Cc1ccccc1)C(=O)N[C@H](C(=O)N[C@@H](Cc1c[nH]cn1)C(=O)NC(C)(C)C(=O)N[C@@H](Cc1ccccc1)C(=O)N[C@@H](Cc1c[nH]cn1)C(N)=O)C(C)C [Peptide 5] (H-GIHHFLHS[Aib]HHFVH[Aib]FH-NH2) | >50 | >50 | >50 | >50 | >100 | – | – | –
2 | CC[C@H](C)[C@H](NC(=O)CN)C(=O)N[C@@H](CCCN)C(=O)N[C@@H](CCCN)C(=O)N[C@@H](Cc1ccccc1)C(=O)N[C@@H](CC(C)C)C(=O)N[C@@H](CCCN)C(=O)N[C@@H](CO)C(=O)NC(C)(C)C(=O)N[C@@H](CCCN)C(=O)N[C@@H](CCCN)C(=O)N[C@@H](Cc1ccccc1)C(=O)N[C@H](C(=O)N[C@@H](CCCN)C(=O)NC(C)(C)C(=O)N[C@@H](Cc1ccccc1)C(=O)N[C@@H](CCCN)C(N)=O)C(C)C [Peptide 2] (H-GI[Orn][Orn]FL[Orn]S[Aib][Orn][Orn]FV[Orn][Aib]F[Orn]-NH2) | 3.13 (≈ 5.94 µg/mL) | 6.25 (≈ 11.9 µg/mL) | 3.13 (≈ 5.94 µg/mL) | 12.5 (≈ 23.7 µg/mL) | 50 | 41 | up to approximately two times | –
3 | CC[C@H](C)[C@H](NC(=O)CN)C(=O)N[C@@H](CCN)C(=O)N[C@@H](CCN)C(=O)N[C@@H](Cc1ccccc1)C(=O)N[C@@H](CC(C)C)C(=O)N[C@@H](CCN)C(=O)N[C@@H](CO)C(=O)NC(C)(C)C(=O)N[C@@H](CCN)C(=O)N[C@@H](CCN)C(=O)N[C@@H](Cc1ccccc1)C(=O)N[C@H](C(=O)N[C@@H](CCN)C(=O)NC(C)(C)C(=O)N[C@@H](Cc1ccccc1)C(=O)N[C@@H](CCN)C(N)=O)C(C)C [Peptide 3] (H-GI[Dab][Dab]FL[Dab]S[Aib][Dab][Dab]FV[Dab][Aib]F[Dab]-NH2) | 3.13 (≈ 5.63 µg/mL) | 6.25 (≈ 11.2 µg/mL) | 6.25 (≈ 11.2 µg/mL) | 12.5 (≈ 22.5 µg/mL) | 25 | – | – | –
4 | CC[C@H](C)[C@H](NC(=O)CN)C(=O)N[C@@H](CCCNC(=N)N)C(=O)N[C@@H](CCCNC(=N)N)C(=O)N[C@@H](Cc1ccccc1)C(=O)N[C@@H](CC(C)C)C(=O)N[C@@H](CCCNC(=N)N)C(=O)N[C@@H](CO)C(=O)NC(C)(C)C(=O)N[C@@H](CCCNC(=N)N)C(=O)N[C@@H](CCCNC(=N)N)C(=O)N[C@@H](Cc1ccccc1)C(=O)N[C@H](C(=O)N[C@@H](CCCNC(=N)N)C(=O)NC(C)(C)C(=O)N[C@@H](Cc1ccccc1)C(=O)N[C@@H](CCCNC(=N)N)C(N)=O)C(C)C [Peptide 4] (H-GIRRFLRS[Aib]RRFVR[Aib]FR-NH2) | 3.13 (≈ 6.86 µg/mL) | 12.5 (≈ 27.4 µg/mL) | 12.5 (≈ 27.4 µg/mL) | 3.13 (≈ 6.86 µg/mL) | 6.25 | – | – | –
5 | CC[C@H](C)[C@H](NC(=O)CN)C(=O)N[C@@H](CCCCN)C(=O)N[C@@H](CCCCN)C(=O)N[C@@H](Cc1ccccc1)C(=O)N[C@@H](CC(C)C)C(=O)N[C@@H](CCCCN)C(=O)N[C@@H](CO)C(=O)NC(C)(C)C(=O)N[C@@H](CCCCN)C(=O)N[C@@H](CCCCN)C(=O)N[C@@H](Cc1ccccc1)C(=O)N[C@H](C(=O)N[C@@H](CCCCN)C(=O)NC(C)(C)C(=O)N[C@@H](Cc1ccccc1)C(=O)N[C@@H](CCCCN)C(N)=O)C(C)C [Peptide 1] (H-GIKKFLKS[Aib]KKFVK[Aib]FK-NH2) | 3.13 (≈ 6.25 µg/mL) | 3.13 (≈ 6.25 µg/mL) | 3.13 (≈ 6.25 µg/mL) | 12.5 (≈ 24.9 µg/mL) | 100 | ~20 | – | –
6 | GIGKFLHSAKKFGKAFVGEIMNS-NH2 [Mag2, magainin 2, reference compound] | – | 12.5 | 12.5 | 100 | >100 | – | – | 3.13
